Measured values from the NIST ThermoML archive (doi:10.1021/je800579j).
Numbers after ± are expanded uncertainties.

Assay: xn = mol fraction of the nth substance listed
Settings: Liquid, Pycnometric method

Cc1cccc(C)c1 [1,3-dimethylbenzene] + C1COCCO1
mass density [kg/m3]
Settings | 288.15 K | 293.15 K | 298.15 K | 303.15 K | 308.15 K | 313.15 K | 318.15 K
x2 = 0 | 868.59 ± 0.67 | 864.31 ± 0.66 | 860.02 ± 0.67 | 855.74 ± 0.67 | 851.45 ± 0.68 | 847.17 ± 0.68 | 842.88 ± 0.69
x2 = 0.0938 | 879.61 ± 0.7 | 875.2 ± 0.68 | 870.79 ± 0.68 | 866.38 ± 0.69 | 861.97 ± 0.7 | 857.56 ± 0.7 | 853.16 ± 0.69
x2 = 0.1532 | 886.95 ± 0.71 | 882.46 ± 0.69 | 877.97 ± 0.7 | 873.48 ± 0.7 | 868.99 ± 0.71 | 864.5 ± 0.71 | 860.01 ± 0.71
x2 = 0.2046 | 893.54 ± 0.72 | 888.98 ± 0.7 | 884.42 ± 0.71 | 879.87 ± 0.71 | 875.32 ± 0.72 | 870.77 ± 0.72 | 866.22 ± 0.71
x2 = 0.2698 | 902.26 ± 0.74 | 897.62 ± 0.71 | 892.98 ± 0.72 | 888.35 ± 0.72 | 883.72 ± 0.73 | 879.09 ± 0.73 | 874.47 ± 0.72
x2 = 0.3374 | 911.76 ± 0.75 | 907.05 ± 0.72 | 902.34 ± 0.73 | 897.63 ± 0.74 | 892.92 ± 0.74 | 888.21 ± 0.75 | 883.5 ± 0.73
x2 = 0.4002 | 921.05 ± 0.77 | 916.26 ± 0.74 | 911.47 ± 0.74 | 906.68 ± 0.75 | 901.9 ± 0.75 | 897.12 ± 0.76 | 892.34 ± 0.74
x2 = 0.4714 | 932.18 ± 0.79 | 927.3 ± 0.75 | 922.42 ± 0.76 | 917.55 ± 0.76 | 912.68 ± 0.77 | 907.81 ± 0.77 | 902.94 ± 0.75
x2 = 0.5487 | 945 ± 0.81 | 940.02 ± 0.77 | 935.04 ± 0.77 | 930.06 ± 0.78 | 925.08 ± 0.78 | 920.1 ± 0.79 | 915.12 ± 0.76
x2 = 0.63 | 959.44 ± 0.84 | 954.33 ± 0.79 | 949.22 ± 0.79 | 944.11 ± 0.8 | 939.01 ± 0.8 | 933.91 ± 0.81 | 928.81 ± 0.77
x2 = 0.7182 | 976.23 ± 0.87 | 970.98 ± 0.81 | 965.73 ± 0.81 | 960.49 ± 0.82 | 955.25 ± 0.82 | 950.01 ± 0.83 | 944.77 ± 0.78
x2 = 0.8035 | 993.74 ± 0.88 | 988.36 ± 0.83 | 982.98 ± 0.83 | 977.6 ± 0.83 | 972.23 ± 0.84 | 966.86 ± 0.84 | 961.5 ± 0.81
x2 = 0.8708 | 1008.47 ± 0.88 | 1002.99 ± 0.84 | 997.51 ± 0.85 | 992.03 ± 0.85 | 986.56 ± 0.85 | 981.09 ± 0.86 | 975.62 ± 0.83
x2 = 0.9324 | 1022.71 ± 0.9 | 1017.15 ± 0.85 | 1011.59 ± 0.86 | 1006.03 ± 0.86 | 1000.48 ± 0.87 | 994.93 ± 0.87 | 989.38 ± 0.84

Cc1ccc(C)cc1 [1,4-dimethylbenzene] + C1COCCO1
mass density [kg/m3]
Settings | 288.15 K | 293.15 K | 298.15 K | 303.15 K | 308.15 K | 313.15 K | 318.15 K
x2 = 0 | 865.52 ± 0.67 | 861.17 ± 0.67 | 856.82 ± 0.67 | 852.47 ± 0.68 | 848.12 ± 0.68 | 843.77 ± 0.69 | 839.42 ± 0.7
x2 = 0.0716 | 874.09 ± 0.71 | 869.64 ± 0.68 | 865.2 ± 0.69 | 860.76 ± 0.69 | 856.32 ± 0.7 | 851.88 ± 0.7 | 847.44 ± 0.69
x2 = 0.1445 | 883.22 ± 0.72 | 878.69 ± 0.7 | 874.16 ± 0.7 | 869.64 ± 0.7 | 865.12 ± 0.71 | 860.6 ± 0.72 | 856.08 ± 0.7
x2 = 0.2132 | 892.23 ± 0.73 | 887.63 ± 0.71 | 883.03 ± 0.71 | 878.43 ± 0.72 | 873.83 ± 0.72 | 869.23 ± 0.73 | 864.63 ± 0.71
x2 = 0.2871 | 902.41 ± 0.75 | 897.73 ± 0.72 | 893.05 ± 0.72 | 888.37 ± 0.73 | 883.69 ± 0.73 | 879.02 ± 0.74 | 874.35 ± 0.72
x2 = 0.3582 | 912.76 ± 0.77 | 908 ± 0.73 | 903.24 ± 0.74 | 898.49 ± 0.74 | 893.74 ± 0.75 | 888.99 ± 0.75 | 884.24 ± 0.73
x2 = 0.4358 | 924.73 ± 0.78 | 919.88 ± 0.75 | 915.03 ± 0.75 | 910.19 ± 0.76 | 905.35 ± 0.76 | 900.51 ± 0.77 | 895.67 ± 0.75
x2 = 0.5042 | 935.9 ± 0.8 | 930.97 ± 0.76 | 926.04 ± 0.76 | 921.12 ± 0.77 | 916.2 ± 0.77 | 911.28 ± 0.78 | 906.36 ± 0.76
x2 = 0.5846 | 949.87 ± 0.82 | 944.84 ± 0.78 | 939.81 ± 0.78 | 934.78 ± 0.78 | 929.76 ± 0.79 | 924.74 ± 0.79 | 919.72 ± 0.77
x2 = 0.6543 | 962.76 ± 0.83 | 957.63 ± 0.79 | 952.5 ± 0.79 | 947.38 ± 0.8 | 942.26 ± 0.8 | 937.14 ± 0.81 | 932.02 ± 0.78
x2 = 0.7249 | 976.61 ± 0.85 | 971.38 ± 0.8 | 966.15 ± 0.81 | 960.92 ± 0.81 | 955.69 ± 0.82 | 950.46 ± 0.82 | 945.23 ± 0.8
x2 = 0.7923 | 990.62 ± 0.87 | 985.27 ± 0.82 | 979.92 ± 0.83 | 974.58 ± 0.83 | 969.25 ± 0.83 | 963.92 ± 0.84 | 958.59 ± 0.81
x2 = 0.8623 | 1006.05 ± 0.88 | 1000.6 ± 0.84 | 995.15 ± 0.84 | 989.7 ± 0.85 | 984.25 ± 0.85 | 978.8 ± 0.86 | 973.35 ± 0.82
x2 = 0.9311 | 1022.14 ± 0.9 | 1016.58 ± 0.85 | 1011.03 ± 0.86 | 1005.48 ± 0.86 | 999.93 ± 0.87 | 994.38 ± 0.87 | 988.83 ± 0.83

Cc1cc(C)cc(C)c1 [1,3,5-trimethylbenzene] + C1COCCO1
mass density [kg/m3]
Settings | 288.15 K | 293.15 K | 298.15 K | 303.15 K | 308.15 K | 313.15 K | 318.15 K
x2 = 0 | 869.28 ± 0.63 | 865.37 ± 0.63 | 861.45 ± 0.63 | 857.54 ± 0.64 | 853.63 ± 0.65 | 849.71 ± 0.65 | 845.8 ± 0.66
x2 = 0.0696 | 876.28 ± 0.67 | 872.24 ± 0.64 | 868.2 ± 0.65 | 864.16 ± 0.65 | 860.13 ± 0.66 | 856.1 ± 0.67 | 852.07 ± 0.66
x2 = 0.1408 | 883.83 ± 0.69 | 879.67 ± 0.66 | 875.52 ± 0.66 | 871.37 ± 0.67 | 867.22 ± 0.68 | 863.07 ± 0.68 | 858.92 ± 0.67
x2 = 0.2098 | 891.62 ± 0.7 | 887.36 ± 0.67 | 883.1 ± 0.68 | 878.84 ± 0.68 | 874.59 ± 0.69 | 870.34 ± 0.7 | 866.09 ± 0.68
x2 = 0.28 | 900.04 ± 0.72 | 895.68 ± 0.69 | 891.32 ± 0.69 | 886.96 ± 0.7 | 882.6 ± 0.7 | 878.25 ± 0.71 | 873.9 ± 0.69
x2 = 0.3558 | 909.87 ± 0.74 | 905.4 ± 0.7 | 900.93 ± 0.71 | 896.46 ± 0.71 | 892 ± 0.72 | 887.54 ± 0.72 | 883.08 ± 0.7
x2 = 0.4276 | 919.97 ± 0.76 | 915.4 ± 0.72 | 910.83 ± 0.72 | 906.26 ± 0.73 | 901.7 ± 0.73 | 897.14 ± 0.74 | 892.58 ± 0.71
x2 = 0.5066 | 932.03 ± 0.79 | 927.35 ± 0.73 | 922.67 ± 0.74 | 917.99 ± 0.74 | 913.32 ± 0.75 | 908.65 ± 0.75 | 903.98 ± 0.72
x2 = 0.5801 | 944.34 ± 0.8 | 939.54 ± 0.75 | 934.74 ± 0.75 | 929.94 ± 0.76 | 925.14 ± 0.77 | 920.34 ± 0.77 | 915.54 ± 0.74
x2 = 0.6548 | 957.96 ± 0.83 | 953.01 ± 0.77 | 948.06 ± 0.77 | 943.12 ± 0.78 | 938.18 ± 0.78 | 933.25 ± 0.79 | 928.32 ± 0.75
x2 = 0.7227 | 971.44 ± 0.85 | 966.36 ± 0.79 | 961.28 ± 0.79 | 956.21 ± 0.8 | 951.14 ± 0.8 | 946.07 ± 0.81 | 941 ± 0.77
x2 = 0.7936 | 986.75 ± 0.87 | 981.51 ± 0.81 | 976.27 ± 0.81 | 971.04 ± 0.82 | 965.81 ± 0.82 | 960.58 ± 0.83 | 955.35 ± 0.78
x2 = 0.8663 | 1003.78 ± 0.9 | 998.39 ± 0.83 | 993 ± 0.83 | 987.61 ± 0.84 | 982.23 ± 0.84 | 976.85 ± 0.85 | 971.47 ± 0.8
x2 = 0.9319 | 1020.49 ± 0.92 | 1014.96 ± 0.85 | 1009.43 ± 0.85 | 1003.91 ± 0.86 | 998.39 ± 0.86 | 992.87 ± 0.87 | 987.35 ± 0.81
